Source: patent US12509447B2, “Small molecule compound” (Technoderma Medicines Pte Ltd, priority 2019, dated 2025)

Key:
[1] = biological target: JAK1 (Homo sapiens, UniProt P23458); experiment: Inhibition of JAK kinase activity, EZ Reader microfluidic phosphorylation of peptide substrate: JAK1; format: biochemical; settings: JAK1 kinase 20 nM; highest final concentration 10 μM, 1:3 serial dilution, 8 points, duplicates
Description: (§1) EZ Reader available from PerkinElmer can be used for detecting the phosphorylation of polypeptide substrates catalyzed by kinases. This device is based on microfluidic separation technology, and can directly detect fluorescence labeled substrates and products. The separation step is achieved in a microfluidic chip by controlling the pressure and electric field intensity. In a kinase experiment, the product conversion rate is generally controlled at 20-30%. This biological assay method is used for identifying the inhibitory effect of the compounds on JAK.
(§2) The compound powder was dissolved in DMSO, sealed and stored in a refrigerator at −20° C. The in-house compound Ref1 was used as a positive control for testing of JAK1, JAK2 and Tyk2, and Ref2 was used as a positive control for testing of JAK3.
(§3) • S2.1. 1M HEPES buffer: 0.5M HEPES free acid and 0.5M HEPES sodium salt are weighed, added into ultrapure water for dissolution, brought to a desired volume, filtered and stored in a refrigerator at 4° C. • S2.2. 40 mM ATP solution: dissolved in a 50 mM HEPES buffer solution, prepared into 40 mM, aliquoted, and cryopreserved in a refrigerator at −20° C. • S2.3. 0.5% Tween 20: 100% Tween 20 was diluted with ultrapure water, and stored in a refrigerator at 4° C. • S2.4. 35% bovine serum albumin: a 35% bovine serum albumin solution is prepared in ultrapure water, aliquoted, and stored in a refrigerator at −20° C. • S2.5. 1M dithiothreitol solution: dithiothreitol is formulated into a 1M solution with ultrapure water, aliquoted, and stored in a refrigerator at −20° C. • S2.6. 0.5 mM Jaktide Peptide substrate solution: it is dissolved in 50 mM HEPES to 0.5 mM, aliquoted, and stored in a refrigerator at −20° C. • S2.7. 0.5 mM IRStide Peptide substrate solution: it is dissolved in 50 mM HEPES to 0.5 mM, aliquoted, and stored in a refrigerator at −20° C. • S2.8. Assay Buffer: 20 mM HEPES buffer, pH 7.4, 10 mM magnesium chloride, 0.01% bovine serum albumin BSA, 0.0005% Tween-20, and a 1 mM dithiothreitol solution. • S2.9. Stop Buffer: 180 mM HEPES buffer, 20 mM ethylenediamine tetraacetic acid (EDTA), and 0.2% Coating Reagent 3. • S2.10. Separation Buffer: 100 mM HEPES buffer, 10 mM EDTA, 0.0005% Tween 20, 0.1% Coating Reagent 3, and 1% dimethyl sulfoxide. 3. Experimental Procedures • S3.1. Preparation of compound plate
(§4) The compound is dissolved in dimethyl sulfoxide to 10 mM, a certain volume is taken and diluted to 0.6 mM, 10 μl of the diluted 0.6 mM solution is taken and added into a 384 microplate or 1:3 serial dilution, with a total of 8 concentration points. • S3.2. Compound layout
(§5) • positive control (HPE1): Ref1, final concentration: 10 μM • positive control (HPE1): Ref2, final concentration: 10 μM • negative control (ZPE): DMSO, with a final concentration of 1.6% • Compound: the highest final concentration at 10 μM, 1:3 serial dilution, with 8 concentration points and in duplicates. 4. Experimental operation steps • S4.1. the experimental plate was added with 250 nl of the compound per well with ECHO, and centrifuged at 1,000 rpm for 1 minute; • S4.2. the precipitate was added with 5 μl of the experimental buffer, and shaken for several seconds to fully dissolve the compound; • S4.3. the solution was added with 5 μl of a 3× substrate solution, as well as 5 μl of a 3× kinase solution, and centrifuged at 800 rpm for 1 minute; • S4.4. The final concentrations of JAK1, JAK2, JAK3 and Tyk2 kinases in the reaction system are 20, 1, 1 and 1 nM, respectively. • S4.5. the reaction system is incubated at room temperature, wherein the incubation time of each kinase is different, and there are differences in incubation time of different batches of kinases. • S4.6. When the reaction reaches 20%-30%, the reaction system is added with 15 μl of the stop buffer to terminate the reaction, and centrifuged at 1,000 rpm for 2 minutes. • S4.7. The precipitate was placed onto a EZ Reader for plate reading. • S4.8. […]

[2] = biological target: Tyk2 (Homo sapiens, UniProt P29597); experiment: Inhibition of JAK kinase activity, EZ Reader microfluidic phosphorylation of peptide substrate: Tyk2; format: biochemical; settings: Tyk2 kinase 1 nM; highest final concentration 10 μM, 1:3 serial dilution, 8 points, duplicates
Tyk2, sequence (P29597 whole entry): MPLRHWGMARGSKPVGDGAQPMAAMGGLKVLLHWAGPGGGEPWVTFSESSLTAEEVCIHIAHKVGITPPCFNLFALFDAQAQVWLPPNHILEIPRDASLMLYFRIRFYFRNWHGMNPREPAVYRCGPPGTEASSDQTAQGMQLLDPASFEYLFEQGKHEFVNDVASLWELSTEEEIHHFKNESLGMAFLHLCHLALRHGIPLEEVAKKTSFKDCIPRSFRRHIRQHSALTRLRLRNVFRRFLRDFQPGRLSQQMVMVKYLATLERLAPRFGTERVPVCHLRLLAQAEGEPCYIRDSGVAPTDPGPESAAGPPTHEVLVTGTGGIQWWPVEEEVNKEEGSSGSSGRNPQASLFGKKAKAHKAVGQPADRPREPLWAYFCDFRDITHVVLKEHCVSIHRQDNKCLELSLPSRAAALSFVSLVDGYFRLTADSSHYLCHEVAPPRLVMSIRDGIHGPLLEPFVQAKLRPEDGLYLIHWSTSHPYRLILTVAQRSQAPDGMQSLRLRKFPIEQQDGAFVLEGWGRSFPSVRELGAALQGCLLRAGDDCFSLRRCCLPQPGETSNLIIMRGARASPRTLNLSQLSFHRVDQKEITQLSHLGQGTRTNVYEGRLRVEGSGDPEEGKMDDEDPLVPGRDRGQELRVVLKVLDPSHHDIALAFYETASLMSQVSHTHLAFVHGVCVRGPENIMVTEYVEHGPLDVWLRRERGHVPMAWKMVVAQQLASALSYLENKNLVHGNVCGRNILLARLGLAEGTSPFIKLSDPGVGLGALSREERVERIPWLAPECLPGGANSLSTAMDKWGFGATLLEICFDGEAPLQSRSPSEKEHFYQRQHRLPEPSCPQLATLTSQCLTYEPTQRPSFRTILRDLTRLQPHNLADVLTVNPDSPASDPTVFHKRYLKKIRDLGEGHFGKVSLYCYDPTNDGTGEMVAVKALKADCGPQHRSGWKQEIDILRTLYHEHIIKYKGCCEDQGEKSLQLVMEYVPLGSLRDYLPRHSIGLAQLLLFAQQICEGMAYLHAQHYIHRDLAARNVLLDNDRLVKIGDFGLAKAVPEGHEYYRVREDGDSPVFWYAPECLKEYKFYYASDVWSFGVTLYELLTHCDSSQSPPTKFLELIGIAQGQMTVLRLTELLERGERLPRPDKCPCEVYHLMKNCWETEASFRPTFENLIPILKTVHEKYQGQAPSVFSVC
Description: as §1, §2, §3, §4, §5

JAK1, sequence (P23458 whole entry): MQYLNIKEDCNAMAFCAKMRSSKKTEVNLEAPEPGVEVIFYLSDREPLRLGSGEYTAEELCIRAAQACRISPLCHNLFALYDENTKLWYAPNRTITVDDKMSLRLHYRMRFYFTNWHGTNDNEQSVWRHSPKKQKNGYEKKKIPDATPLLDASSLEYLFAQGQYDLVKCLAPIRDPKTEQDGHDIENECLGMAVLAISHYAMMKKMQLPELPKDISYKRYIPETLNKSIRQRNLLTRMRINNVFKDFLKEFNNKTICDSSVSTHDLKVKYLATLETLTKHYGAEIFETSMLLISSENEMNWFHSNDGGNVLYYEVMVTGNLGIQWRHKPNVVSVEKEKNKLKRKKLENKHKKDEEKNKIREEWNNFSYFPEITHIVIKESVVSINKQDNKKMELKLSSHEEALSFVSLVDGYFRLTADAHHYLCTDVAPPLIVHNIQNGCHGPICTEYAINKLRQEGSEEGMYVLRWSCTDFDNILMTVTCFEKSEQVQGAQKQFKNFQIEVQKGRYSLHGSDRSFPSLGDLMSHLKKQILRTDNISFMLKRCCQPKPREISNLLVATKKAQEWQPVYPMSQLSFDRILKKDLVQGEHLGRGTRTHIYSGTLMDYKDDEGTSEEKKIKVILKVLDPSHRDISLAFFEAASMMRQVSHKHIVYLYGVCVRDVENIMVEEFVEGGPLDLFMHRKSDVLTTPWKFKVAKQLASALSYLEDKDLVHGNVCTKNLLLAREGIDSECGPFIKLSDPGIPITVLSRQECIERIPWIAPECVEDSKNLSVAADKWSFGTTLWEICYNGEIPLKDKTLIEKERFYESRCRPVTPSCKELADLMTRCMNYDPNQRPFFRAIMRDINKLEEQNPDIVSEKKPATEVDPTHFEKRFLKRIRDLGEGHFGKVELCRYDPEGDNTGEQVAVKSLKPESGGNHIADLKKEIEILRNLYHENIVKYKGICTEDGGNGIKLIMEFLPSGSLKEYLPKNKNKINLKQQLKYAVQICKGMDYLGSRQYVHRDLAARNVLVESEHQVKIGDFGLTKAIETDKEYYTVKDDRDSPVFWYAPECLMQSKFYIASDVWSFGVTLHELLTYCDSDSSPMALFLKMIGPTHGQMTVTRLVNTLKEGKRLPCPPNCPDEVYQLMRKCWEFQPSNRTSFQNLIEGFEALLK

IC50 [1] [µM] | IC50 [2] [µM] | SMILES
1 to 10 | 1 to 10 | COCC(=O)N1CC(CC#N)(n2cc(-c3ccnc(Nc4cnn(C)c4)n3)cn2)C1 [TDM-180765, 2-(1-(2-methoxyacetyl)-3-(4-(2-((1-methyl-1H-pyrazol-4-yl)amino)pyrimidin-4-yl)-1H-pyrazol-1-yl)azetidin-3-yl)acetonitrile]
1 to 10 | 1 to 10 | COCC(=O)N1CC(CC#N)(n2ccc(-c3ccnc(Nc4cnn(C)c4)n3)c2)C1 [TDM-180769, 2-(1-(2-methoxyacetyl)-3-(3-(2-((1-methyl-1H-pyrazol-4-yl)amino)pyrimidin-4-yl)-1H-pyrrol-1-yl)azetidin-3-yl)acetonitrile]
1 to 10 | 1 to 10 | Cn1cc(Nc2nccc(-c3ccn(C4(CC#N)CN(C(=O)CO)C4)c3)n2)cn1 [TDM-180786]
1 to 10 | 1 to 10 | Cn1cc(Nc2nccc(-c3cnn(C4(CC#N)CN(C(=O)CO)C4)c3)n2)cn1 [TDM-180810, 2-(1-(2-hydroxyacetyl)-3-(4-(2-((1-methyl-1H-pyrazol-4-yl)amino)pyrimidin-4-yl)-1H-pyrazol-1-yl)azetidin-3-yl)acetonitrile]
1 to 10 | 1 to 10 | Cn1cc(Nc2nccc(-c3ccn(C4(CC#N)CN(C(=O)C5CC5)C4)n3)n2)cn1 [TDM-180858, 2-(1-(cyclopropanecarbonyl)-3-(3-(2-((1-methy 1-1H-pyrazol-4-yl)amino)pyrimidin-4-yl)-1H-pyrazol-1-yl)azetidinpyridin-3-yl)acetonitrile]
0.1 to 1 | 0.1 to 1 | Cn1cc(Nc2nccc(-c3ccn(C4(CC#N)CN(C(=O)C5CC5(F)F)C4)n3)n2)cn1 (stereo not drawn) [TDM-180859, 2-(1-(2,2-difluorcyclopropanecarbonyl)-3-(3-(2-((1-methyl-1H-pyrazol-4-yl)amino)pyrimidin-4-yl)-1H-pyrazol-1-yl)azetidin-3-yl)acetonitrile]
0.1 to 1 | 0.1 to 1 | Cn1cc(Nc2nccc(-c3ccn(C4(CC#N)CN(C(=O)CC(F)(F)F)C4)n3)n2)cn1 [TDM-180860, 2-(3-(3-(2-((1-methyl-1H-pyrazol-4-yl)amino)pyrimidin-4-yl)-1H-pyrazol-1-yl)-1-(3,3,3-trifluoropropionyl)azetidin-3-yl)acetonitrile]
1 to 10 | 1 to 10 | Cn1cc(Nc2nccc(-c3ccn(C4(CC#N)CN(C(=O)CC#N)C4)n3)n2)cn1 [TDM-180861, 3-(3-(cyanomethyl)-3-(3-(2-((1-methyl-1H-pyrazol-4-yl)amino)pyrimidin-4-yl)-1H-pyrazol-1-yl)azetidinpiperazin-1-yl)-3-oxypropionitrile]
< 0.1 | < 0.1 | Cn1cc(Nc2nccc(-c3ccn(C4(CC#N)CN(S(=O)(=O)CC(F)(F)F)C4)c3)n2)cn1 [TDM-180866, 2-(3-(3-(2-((1-methyl-1H-pyrazol-4-yl)amino)pyrimidin-4-yl)-1H-pyrrol-1-yl)-1-((2,2,2-trifluoroethyl)sulfonyl)azetidin-3-yl)acetonitrile]
0.1 to 1 | 0.1 to 1 | Cn1cc(Nc2nccc(-c3ccc(C4(CC#N)CN(C(=O)CC#N)C4)cc3)n2)cn1 [TDM-180871, 3-(3-(cyanomethyl)-3-(4-(2-((1-methyl-1H-pyrazol-4-yl)amino)pyrimidin-4-yl)phenyl)azetidin-1-yl)-3-oxopropionitrile]
0.1 to 1 | 0.1 to 1 | Cn1cc(Nc2nccc(-c3ccc(C4(CC#N)CN(C(=O)C5CC5(F)F)C4)cc3)n2)cn1 (stereo not drawn) [TDM-180872, 2-(1-(2,2-difluorocyclo-1-carbonyl)-3-(4-(2-((1-methyl-1H-pyrazol-4-yl)amino)pyrimidin-4-yl)phenyl)azetidin-3-yl)acetonitrile]
0.1 to 1 | 0.1 to 1 | Cn1cc(Nc2nccc(-c3ccc(C4(CC#N)CN(C(=O)CC(F)(F)F)C4)cc3)n2)cn1 [TDM-180873, 2-(3-(4-(2-((1-methyl-1H-pyrazol-4-yl)amino)pyrimidin-4-yl)phenyl)-1-(3,3,3-trifluoropropanol)azetidin-3-yl)acetonitrile]
1 to 10 | 1 to 10 | Cn1cc(Nc2nccc(-c3ccc(C4(CC#N)CN(C(=O)C5CC5)C4)cc3)n2)cn1 [TDM-180880, 2-(1-(cyclopropanecarbonyl)-3-(4-(2-((1-methyl-1H-pyrazol-4-yl)amino)pyrimidin-4-yl)phenyl)azetidin-3-yl)acetonitrile]
0.1 to 1 | 1 to 10 | Cn1cc(Nc2nccc(-c3ccn(C4(CC#N)CN(S(=O)(=O)C5CCOCC5)C4)n3)n2)cn1 [TDM-180912, 2-(3-(3-(2-((1-methyl-1H-pyrazol-4-yl)amino)pyrimidin-4-yl)-1H-pyrazol-1-yl)-1-((tetrahydro-2H-pyran-4-yl)sulfonyl)azetidin-3-yl)acetonitrile]
0.1 to 1 | 0.1 to 1 | Cn1cc(Nc2nccc(-c3ccn(C4(CC#N)CN(S(=O)(=O)C5CC5)C4)n3)n2)cn1 [TDM-180915, 2-(1-(cyclopropylsulfonyl)-3-(3-(2-((1-methyl-1H-pyrazol-4-yl)amino)pyrimidin-4-yl)-1H-pyrazol-1-yl)azetidinpyridin-3-yl)acetonitrile]
0.1 to 1 | 1 to 10 | CCCS(=O)(=O)N1CC(CC#N)(n2ccc(-c3ccnc(Nc4cnn(C)c4)n3)n2)C1 [TDM-180916, 2-(3-(3-(2-((1-methyl-1H-pyrazol-4-yl)amino)pyrimidin-4-yl)-1H-pyrazol-1-yl)-1-(propylsulfonyl)azacyclobutanpyridin-3-yl)acetonitrile]
1 to 10 | 1 to 10 | Cn1cc(Nc2nccc(-c3ccn(C4(CC#N)CN(S(=O)(=O)CC(F)(F)F)C4)n3)n2)cn1 [TDM-180918, 2-(3-(3-(2-((1-methyl-1H-pyrazol-4-yl)amino)pyrimidin-4-yl)-1H-pyrazol-1-yl)-1-((2,2,2-trifluoroethyl)sulfonyl)azetidin-3-yl)acetonitrile]
0.1 to 1 | 0.1 to 1 | CCS(=O)(=O)N1CC(CC#N)(n2ccc(-c3ccnc(Nc4cnn(C)c4)n3)n2)C1 [TDM-180922, 2-(1-(ethylsulfonyl)-3-(3-(2-((1-methyl-1H-pyrazol-4-yl)amino)pyrimidin-4-yl)-1H-pyrazol-1-yl)azetidinpyridin-3-yl)acetonitrile]
0.1 to 1 | 0.1 to 1 | Cn1cc(Nc2nccc(-c3cnn(C4(CC#N)CN(S(=O)(=O)CCCCl)C4)c3)n2)cn1 [TDM-180925, 2-(1-((3-chloropropyl)sulfonyl)-3-(4-(2-((1-methyl-1H-pyrazol-4-yl)amino)pyrimidin-4-yl)-1H-pyrazol-1-yl)azetidin-3-yl)acetonitrile]
0.1 to 1 | 0.1 to 1 | COC(=O)CCS(=O)(=O)N1CC(CC#N)(n2cc(-c3ccnc(Nc4cnn(C)c4)n3)cn2)C1 [TDM-180927, Ethyl methyl-3-((3-(cyanomethyl)-3-(4-(2-((1-methyl-1H-pyrazol-4-yl)amino)pyrimidin-4-yl)-1H-pyrazol-1-yl)azetidineazetidin-1-yl)sulfonyl)propionate]
0.1 to 1 | < 0.1 | Cn1cc(Nc2nccc(-c3cnn(C4(CC#N)CN(S(=O)(=O)CC(F)(F)F)C4)c3)n2)cn1 [TDM-180928, 2-(3-(4-(2-((1-methyl-1H-pyrazol-4-yl)amino)pyrimidin-4-yl)-1H-pyrazol-1-yl)-1-((2,2,2-trifluoroethyl)sulfonyl)azetidin-3-yl)acetonitrile]
